Measured values as given in the supplement of paper PMC4862054.
Where “and” joins values, the source holds several entries; their conditions need not be identical. Equal entries are not always repeated.

Legend:
Conditions in all cases: incubation time: 72 h
CAL-51 [1] = assay: normalised viability (% of control), CellTiter-Blue; higher = more viable cells (about 100 = DMSO control)
Method in brief: (§1)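 Compound dissolved in 5 µl medium was pre-loaded into 384-well plates, and breast cancer cell lines in 20 µl suspension were seeded on top and incubated 72 h. After adding 2.5 µl CellTiter-Blue reagent for 2 h at 37 °C, fluorescence was read at 560/590 nm. Plates were normalised to vehicle (100) and a positive kill control (0), with Z'-factor quality control. Each value is normalised viability at a single listed concentration from the series.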

BT-474 [2] = assay: as above
Method in brief: as §1

Hs578T [3] = assay: as above
Method in brief: as §1

CAL-51 [4] = assay: drug sensitivity score (DSS), CellTiter-Glo (DSS (AUC-based score)); higher = stronger drug effect (viability inhibition or cytotoxicity); extreme values may be limits of the assay
Method in brief: (§2)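 Breast cancer cell lines, seeded as 20 µl suspension, were incubated 72 h with compound in 384-well plates at 5 concentrations in 10-fold steps over a 10,000-fold range set for each compound. Fluorescence from CellTox Green was read at 485/520 nm before CellTiter-Glo luminescence, which was read after 10 min at room temperature. Every plate was normalised to 0.1 % DMSO and a positive kill control, and the drug sensitivity score was taken from the area under the fitted dose-response curve.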

BT-474 [5] = assay: as above
Method in brief: as §2

MDA-MB-453 = assay: as above
Method in brief: as §2

CAL-120 = assay: as above
Method in brief: as §2

HCC1937 = assay: as above
Method in brief: as §2

BT-549 = assay: as above
Method in brief: as §2

MDA-MB-468 = assay: as above
Method in brief: as §2

MFM-223 = assay: as above
Method in brief: as §2

SK-BR-3 = assay: as above
Method in brief: as §2

HCC1599 = assay: as above
Method in brief: as §2

DU-4475 = assay: as above
Method in brief: as §2

CAL-148 = assay: as above
Method in brief: as §2

MCF-10A = assay: as above
Method in brief: as §2

MDA-MB-436 = assay: as above
Method in brief: as §2

CAL-85-1 = assay: as above
Method in brief: as §2

HCC1143 = assay: as above
Method in brief: as §2

MDA-MB-231 = assay: as above
Method in brief: as §2

Hs578T [6] = assay: as above
Method in brief: as §2

HDQ-P1 = assay: as above
Method in brief: as §2

| Compound | normalised viability (CAL-51 [1]; 3 nM) | normalised viability (CAL-51 [1]; 30 nM) | normalised viability (CAL-51 [1]; 100 nM) [%] | normalised viability (BT-474 [2]; 10 nM) | normalised viability (BT-474 [2]; 1000 nM) | normalised viability (BT-474 [2]; 10000 nM) | normalised viability (Hs578T [3]; 10 nM) | normalised viability (Hs578T [3]; 1000 nM) | normalised viability (Hs578T [3]; 10000 nM) | drug sensitivity score (CAL-51 [4]) | drug sensitivity score (BT-474 [5]) | drug sensitivity score (MDA-MB-453) | drug sensitivity score (CAL-120) | drug sensitivity score (HCC1937) | drug sensitivity score (BT-549) | drug sensitivity score (MDA-MB-468) | drug sensitivity score (MFM-223) | drug sensitivity score (SK-BR-3) | drug sensitivity score (HCC1599) | drug sensitivity score (DU-4475) | drug sensitivity score (CAL-148) | drug sensitivity score (MCF-10A) | drug sensitivity score (MDA-MB-436) | drug sensitivity score (CAL-85-1) | drug sensitivity score (HCC1143) | drug sensitivity score (MDA-MB-231) | drug sensitivity score (Hs578T [6]) | drug sensitivity score (HDQ-P1) | normalised viability (CAL-51 [1]; 0.3 nM) [%] | normalised viability (CAL-51 [1]; 10 nM) [%] | normalised viability (BT-474 [2]; 1 nM) [%] | normalised viability (BT-474 [2]; 100 nM) [%] | normalised viability (Hs578T [3]; 1 nM) [%] | normalised viability (Hs578T [3]; 100 nM) [%] |
| --- | --- | --- | --- | --- | --- | --- | --- | --- | --- | --- | --- | --- | --- | --- | --- | --- | --- | --- | --- | --- | --- | --- | --- | --- | --- | --- | --- | --- | --- | --- | --- | --- | --- | --- |
| Cc1c(N)nc([C@H](CC(N)=O)NC[C@H](N)C(N)=O)nc1C(=O)N[C@H](C(=O)N[C@H](C)[C@@H](O)[C@H](C)C(=O)N[C@H](C(=O)NCCc1nc(-c2nc(C(=O)NCCC[S+](C)C)cs2)cs1)[C@@H](C)O)[C@@H](OC1OC(CO)C(O)C(O)C1OC1OC(CO)C(O)C(OC(N)=O)C1O)c1cnc[nH]1 (some centres undefined) [Bleomycin] | 97.6% | 96% | 96.3 | 102% | 97.9% | 98% | 90.3% | 64.3% | 50% | 16.1 | 0 | 0 | 0.67 | 2.76 | 8.65 | 0 | 0 | 2.43 | 0 | 0 | 4.27 | 0 | 4.49 | 0 | 4.08 | 0 | 0 | 0 | – | – | – | – | – | – |
| Cn1nnc2c(C(N)=O)ncn2c1=O [Temozolomide] | 91.1% | 96.3% | 91.4 | 94.7% | 100% | 87.5% | 104% | 92.7% | 85.1% | 0 | 0 | 0 | 0 | 0 | 0 | 0 | 0 | 0 | 0 | 0 | 0 | 0 | 0 | 0 | 0 | 0 | 0 | 0 | – | – | – | – | – | – |
| C[C@]12C=CC(=O)C=C1CC[C@@H]1[C@@H]2C(=O)C[C@@]2(C)[C@H]1CC[C@]2(O)C(=O)CO [Prednisone] | 104% | 98.3% | 103 | 133% | 109% | 111% | 121% | 108% | 105% | 0 | 0 | 0 | 0.925 | 0 | 0 | 0 | 0 | 0 | 0 | 0 | 0 | 0 | 0 | 0 | 0 | 0 | 0 | 0 | – | – | – | – | – | – |
| CCCCCOC(=O)Nc1nc(=O)n([C@@H]2O[C@H](C)[C@@H](O)[C@H]2O)cc1F [Capecitabine] | 113% and 108% | 105% and 98.2% | 103 | 124% and 104% | 120% and 108% | 124% and 105% | 105% and 116% | 101% and 104% | 107% and 93.6% | 0 | 0 | 0 | 0 | 0 | 0 | 0 | 0 | 0 | 0 | 0 | 0 | 0 | 0.812 | 0 | 0 | 0 | 0 | 0 | – | – | – | – | – | – |
| NC1(c2ccc(-c3nc4ccn5c(=O)[nH]nc5c4cc3-c3ccccc3)cc2)CCC1 [MK-2206] | 101% | – | – | – | 54% | – | – | 85.2% | – | 0 | 0 | 5.41 | 0 | 0 | 2.74 | 0.936 | 1.78 | 3.43 | 0 | 0.0487 | 1.35 | 0 | 0 | 0 | 0 | 0 | 0.281 | 0 | 104 | 99.6 | 115 | 92.3 | 118 | 124 |
| O=C(c1cc(Cc2n[nH]c(=O)c3ccccc23)ccc1F)N1CCN(C(=O)C2CC2)CC1 [Olaparib] | 107% | 98.5% | 97.7 | 109% | 104% | 98.2% | 110% | 109% | 75.7% | 10.1 | 0 | 0 | 1.26 | 0 | 1.44 | 2.57 | 0 | 0 | 0 | 0 | 2.94 | 0 | 4.69 | 0 | 0 | 0 | 0 | 0 | – | – | – | – | – | – |
| C[C@@H](C(=O)O)c1ccc(-c2ccccc2)c(F)c1 [Tarenflurbil] | 118% | 115% | 111 | 112% | 107% | 113% | 97.7% | 106% | 92.6% | 0 | 0 | 0 | 0 | 0 | 0 | 0 | 0 | 0 | 0 | 0 | 0 | 0 | 0 | 0 | 0 | 0 | 0 | 0 | – | – | – | – | – | – |
| CC/C(=C(\c1ccccc1)c1ccc(OCCN(C)C)cc1)c1ccccc1 [Tamoxifen] | 89.5% | 92.2% | 93.4 | 111% | 117% | 77.5% | 122% | 123% | 104% | 4.03 | 0 | 5.28 | 0.0022 | 1.17 | 0 | 0 | 1.68 | 1.07 | 0 | 0 | 0 | 0 | 0 | 0 | 0 | 0 | 0 | 0 | – | – | – | – | – | – |
| Nc1nc(Cl)nc2c1ncn2[C@@H]1O[C@H](CO)[C@@H](O)[C@@H]1F [Clofarabine] | 109% | 102% | 108 | 106% | 101% | 102% | 98.1% | 67.3% | 61.5% | 17.6 | 5.27 | 0 | 4.58 | 0 | 14.3 | 11.7 | 0 | 12.7 | 9.47 | 6.22 | 8.43 | 5.94 | 16 | 10.6 | 10.8 | 1.71 | 1.74 | 3.38 | – | – | – | – | – | – |
| COc1cc2c(N3CCN(C(=O)Nc4ccc(OC(C)C)cc4)CC3)ncnc2cc1OCCCN1CCCCC1 [Tandutinib] | 101% | – | – | – | 125% | – | – | 96.2% | – | 0 | 0 | 0 | 0 | 0 | 0 | 0 | 0 | 0 | 0 | 0 | 0 | 0 | 0 | 0 | 0 | 0 | 0 | 0 | 110 | 94.2 | 138 | 116 | 115 | 116 |
| CC(C)C[C@H](NC(=O)[C@H](CCc1ccccc1)NC(=O)CN1CCOCC1)C(=O)N[C@@H](Cc1ccccc1)C(=O)N[C@@H](CC(C)C)C(=O)[C@@]1(C)CO1 [Carfilzomib] | 102% | – | – | – | 13.9% | – | – | 1.15% | – | 22.1 | 21.8 | 22.7 | 19 | 20.6 | 29.5 | 29.9 | 28.1 | 26.9 | 10.9 | 15.4 | 17.4 | 12.2 | 26.5 | 25.2 | 23.5 | 21.4 | 22.9 | 20.7 | 111 | 81.4 | 107 | 21.8 | 126 | 1.45 |
| Cc1cc2c(F)c(Oc3ncnn4cc(OC[C@@H](C)O)c(C)c34)ccc2[nH]1 [Brivanib] | 96.8% | – | – | – | 94.5% | – | – | 95.7% | – | 1.49 | 0 | 0 | 0 | 0 | 0 | 0 | 0 | 0 | 0 | 0 | 0 | 0 | 0 | 0 | 0 | 0 | 0 | 0 | 96.7 | 95.7 | 112 | 117 | 98.1 | 109 |
| CCN(CC)CCOc1ccc(C(=C(Cl)c2ccccc2)c2ccccc2)cc1 [Clomifene] | 95.6% | 90.3% | 98.9 | 118% | 111% | 17.1% | 105% | 121% | 59.8% | 0 | 4.51 | 5.37 | 0 | 5.68 | 1.96 | 0 | 2.2 | 2.09 | 6.16 | 2.97 | 0 | 1.05 | 0 | 3.91 | 0 | 5.02 | 4.79 | 0 | – | – | – | – | – | – |
